Literature values as cited in patent US20100261663A1, “Compositions Containing Harpagoside and Paeoniflorin and Methods for Treatment of Conditions Associated with Pain, Inflammation, Arthritis and Symptoms Thereof” (Restorative Remedies, priority 2009, published 2010).
Like-named read-outs stand apart in the source and are kept apart here.

Experiments:
[1] = for Cmax: human whole blood
[2] = test system: human intestinal microflora
[3] = test system: patients with hip and knee osteoarthritis; details: after four months; extract 2,610 mg per day, diacerhein 100 mg per day; no significant differences
[4] = test system: patients suffering from osteoarthritis of the knee and hip; details: 4 months
[5] = mice plasma, oral peony root extract
[6] = not given; remark: listed apart in the source
[7] = test system: intestinal bacteria in rat feces
Salmonella = Salmonella microsome reversion assay
Bacillus subtilis = Bacillus subtilis rec assay
[8] = rats; for Cumulative biliary excretion: within 24 h
[9] = everted sac, at 60 min
[10] = single oral 43.8 mg harpagoside/600 mg extract (study 1)
[11] = single oral 100 mg harpagoside/400 mg extract (study 1)
[12] = single oral 108 mg harpagoside/1200 mg extract (study 3)
[13] = single oral 150 mg harpagoside/600 mg extract (study 2)
[14] = single oral 162 mg harpagoside/1800 mg extract (study 3)
[15] = single oral 200 mg harpagoside/800 mg extract (study 1)
[16] = 5 mg kg^−1 intravenous, within 72 h

C[C@]1(OC(=O)/C=C/c2ccccc2)C[C@@H](O)[C@]2(O)C=CO[C@@H](O[C@@H]3O[C@H](CO)[C@@H](O)[C@H](O)[C@H]3O)[C@@H]21 [harpagoside]
biological activity at acidic pH of gastric secretions: significantly reduced | harpagoside in whole blood ([1]; after 600 mg Harpagophytum extract in study 3 (54 mg harpagoside), oral): no harpagoside was detected | Cmax [1, 10]: 15.4 ng/mL | Cmax [1, 11]: 16.4 ng/mL | Cmax [1, 12]: 8.2 ng/mL | Cmax [1, 13]: 32.2 ng/mL | Cmax [1, 14]: 27.8 ng/mL | Cmax [1, 15]: 50.1 ng/mL | clearance ([1]; overall, oral): about 15 L/min | tmax [1, 10]: 2 h | AUC(0-t) [1, 11]: 65.9 ng·h/mL | AUC(0-∞) [1, 11]: 82 ng·h/mL | CL [1, 11]: 20.3 L/min | Terminal t1/2 [1, 11]: 3.7 h | tmax [1, 11]: 2.5 h | AUC(0-t) [1, 12]: 17.2 ng·h/mL | tmax [1, 12]: 1.3 h | AUC(0-t) [1, 13]: 157.5 ng·h/mL | AUC(0-∞) [1, 13]: 226 ng·h/mL | CL [1, 13]: 12.2 L/min | Terminal t1/2 [1, 13]: 5.6 h | tmax [1, 13]: 1.3 h | AUC(0-t) [1, 14]: 160.5 ng·h/mL | AUC(0-∞) [1, 14]: 187.9 ng·h/mL | CL [1, 14]: 14.4 L/min | Terminal t1/2 [1, 14]: 4.4 h | tmax [1, 14]: 1.8 h | AUC(0-t) [1, 15]: 225.7 ng·h/mL | AUC(0-∞) [1, 15]: 355.8 ng·h/mL | CL [1, 15]: 9.4 L/min | Terminal t1/2 [1, 15]: 6.4 h | tmax [1, 15]: 2.5 h | transformation product [2]: transformed into the pyridine monoterpene alkaloid aucubinine B | LD50 (mice): greater than 13.5 grams per kg of body weight

CC(=O)Oc1cccc2c1C(=O)c1c(OC(C)=O)cc(C(=O)O)cc1C2=O [diacerhein]
osteoarthritis symptoms [3]: considerable improvements | diarrhea, patients [4]: 26.7% | Spontaneous pain (10 cm visual analogue scale) ([4]; Harpadol 6 capsules/day, diacerhein 100 mg/day, no difference between treatments): significant improvement | Lequesne functional index ([4]; no statistical difference between treatments): progressive and significant reduction

C[C@@]12C[C@@]3(O)O[C@@H](O1)[C@]1(COC(=O)c4ccccc4)[C@H]3C[C@@]12O[C@@H]1O[C@H](CO)[C@@H](O)[C@H](O)[C@H]1O [paeoniflorin, 5β-[(Benzoyloxy)methyl]tetrahydro-5-hydroxy-2-Methyl-2,5-methano-1H-3,4-dioxacyclobuta[cd]pentalen-1α(2H)-yl-β-D-glucopyranoside]
mean terminal half-life (t(1/2)) [5]: 1.569 h | metabolism in the gut wall ([6]; AUC after intraperitoneal 0.5 mg kg^−1 versus intraportal or intravenous): not metabolized in the gut wall | hepatic extraction ratio ([6]; intraportal versus intravenous, 0.5 and 5 mg kg^−1): negligible | mean pulmonary extraction ratio ([6]; venous versus arterial AUC after intravenous 0.5 mg kg^−1): 0.06 | metabolites formed [7]: paeonimetabolin-1 (PM-1) and thio-paeonimetabolin-1 (PT-PM-1) | mutagenicity (Salmonella): nonmutagenic | mutagenicity (Bacillus subtilis): nonmutagenic | LD50 (Rodent-mouse; Intraperitoneal): 3530 mg/kg | Toxic Effects (Rodent-mouse; Intraperitoneal): Behavioral-somnolence (general depressed activity) | LD50 (Rodent-mouse; Intravenous): 9530 mg/kg | Toxic Effects (Rodent-mouse; Intravenous): Behavioral-sleep. Behavioral-somnolence (general depressed activity) | Cumulative biliary excretion ([8]; 0.5 mg kg^−1 intravenous): 6.9 % of the dose | Cumulative biliary excretion ([8]; 0.5 mg kg^−1 oral): 1.3 % of the dose | cumulative fecal excretion [8, 16]: 0.22 % of the dose | cumulative urinary excretion [8, 16]: 50.5 % of the dose | cumulative fecal excretion ([8]; 5 mg kg^−1 oral, within 48 h): 0.08 % of the dose | cumulative urinary excretion ([8]; 5 mg kg^−1 oral, within 48 h): 1.0 % of the dose | CLtot ([8]; intravenous 0.5 mg kg^−1): 26.1 mL/min/kg | Vdss ([8]; intravenous 0.5 mg kg^−1): 0.332 L/kg | mean terminal half-life ([8]; intravenous 0.5 mg kg^−1): 0.183 h | CLtot ([8]; intravenous 2.0 mg kg^−1): 31.2 mL/min/kg | Vdss ([8]; intravenous 2.0 mg kg^−1): 0.384 L/kg | mean terminal half-life ([8]; intravenous 2.0 mg kg^−1): 0.165 h | CLtot ([8]; intravenous 5.0 mg kg^−1): 30.3 mL/min/kg | Vdss ([8]; intravenous 5.0 mg kg^−1): 0.423 L/kg | mean terminal half-life ([8]; intravenous 5.0 mg kg^−1): 0.21 h

CCC1(c2ccccc2)C(=O)NC(=O)NC1=O [phenobarbital]
intestinal permeability [9]: 63.1%
